Reference: publication PMC6151700, “Novel FXa Inhibitor Identification through Integration of Ligand- and Structure-Based Approaches” (Molecules : A Journal of Synthetic Chemistry and Natural …, 2017)
Read-outs that look alike come from different tables or passages of the source.

Experiments:
[1] = molecular target: T1, human FXa (Homo sapiens, UniProt P00742); experiment: Inhibition of FXa in vitro (SensoLyte Rh110 Factor Xa Assay Kit, fluorometric); format: biochemical; settings: for Emax at 0.01 µM: at 10 nM, read-out: maximal effect of FXa inhibition
T1 construct: purchased Anaspec, Fremont, CA, USA
Description: The selected compounds were measured in vitro for their factor Xa inhibition using chromogenic substrates. In a first trial the 30 compounds obtained from the developmental therapeutic program at NCI were dissolved in dimethyl sulfoxide (DMSO) at a concentration of 100 mM and then diluted in DMSO to 100 μM. The enzymatic assay was prepared according to manufacturer’s instructions (SensoLyte® Rh110 Factor Xa Assay Kit *Fluorometric*, Anaspec, Fremont, CA, USA). Inhibition control 1 mM was diluted 1:10 with the prepared buffer 1X obtaining the 0.1 mM inhibition control. The reagents containing compound dilutions, buffer and enzyme were mixed, centrifuged, and incubated for 30 min at 37 °C in 96-well microtiter plates. The enzyme reaction was initiated by adding appropriate substrate (FXa, S-2222). The 96-well plate for fluorescence was prepared with 40 μL of enzyme and 1 μL of each compound. To initiate the enzymatic reaction 50 μL of the factor Xa substrate was added to each well and the plate was read with a fluorescence microplate reader FLx800 (Biotek Inc., Winooski, VT, USA) programmed to read continuously for 30 min at 37 °C, at a wavelength of Ex/Em 490 nm/520 nm. […] The data obtained was analyzed with Prism v.7 (GraphPad Inc., La Jolla, CA, USA). In the second trial, the ten filtered and selected compounds) were prepared to span four different concentrations: 0.1–10 nM. The IC50 was calculated from the mean of triplicates from a dilution series of the compound with Prism v.7 (GraphPad Inc., La Jolla, CA, USA).

[2] = test system: human plasma; experiment: In vitro coagulation assay, prothrombin time (PT); settings: up to 10 nM
Description: (§1) PT and aPTT assays were performed on an ACLTop (Instrumentation Laboratory) coagulation instrument. Recombiplastin 2G and aPTT-SP liquid were used according to standard procedures. Increasing concentrations of inhibitor ranging from 0.1 to 10 nM or solvent were added to human plasma and incubated for 10 min at 37 °C. Clotting times were measured and compared with those from the appropriate control plasma.

[3] = test system: tumor cell line; settings: assayed 53 times, ChEMBL database ref 46, 47; cited from earlier work
[4] = test system: human plasma; experiment: In vitro coagulation assay, activated partial thromboplastin time (aPTT); settings: 0.1 to 10 nM
Description: as §1

[5] = read-out: FXa Activity Inhibition >50% at 1 μM
[6] = read-out: FXa Activity Inhibition >50% at 10 μM

T1 sequence (P00742 235-488 limits assumed): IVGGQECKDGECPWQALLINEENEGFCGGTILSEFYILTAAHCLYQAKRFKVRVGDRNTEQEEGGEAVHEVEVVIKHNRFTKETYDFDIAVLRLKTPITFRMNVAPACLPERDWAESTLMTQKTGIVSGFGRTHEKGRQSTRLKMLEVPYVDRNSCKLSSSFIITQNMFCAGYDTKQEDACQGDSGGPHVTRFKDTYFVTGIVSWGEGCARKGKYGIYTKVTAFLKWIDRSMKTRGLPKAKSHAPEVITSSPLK
T1 sequence (P00742 41-179 partner limits assumed): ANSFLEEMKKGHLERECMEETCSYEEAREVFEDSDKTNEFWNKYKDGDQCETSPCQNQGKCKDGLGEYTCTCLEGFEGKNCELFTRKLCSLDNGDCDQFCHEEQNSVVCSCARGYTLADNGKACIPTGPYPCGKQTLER

Row | SMILES | FXa Activity Inhibition >50% at 1 μM [1] | FXa Activity Inhibition >50% at 10 μM [1] | other results
1 | O=C(NCc1ccc2ccc3cccnc3c2n1)c1ccc[n+](Cc2ccccc2)c1 [Compound 2] | (−) (FXa Activity Inhibition >50% at 1 μM) | (+) (FXa Activity Inhibition >50% at 10 μM) | 
2 | Cc1ccc(NC(=O)CCc2nnc3s/c(=C\c4cccc([N+](=O)[O-])c4)c(=O)n23)cc1 [Compound 3] | (−) (FXa Activity Inhibition >50% at 1 μM) | (+) (FXa Activity Inhibition >50% at 10 μM) | 
3 | CC1=C(C(=O)CC(=O)C(=O)Nc2ccccc2)Sc2ccccc2N1 [Compound 5, 4-(3-methyl-4H-1,4-benzothiazin-2-yl)-2,4-dioxo-N-phenylbutanamide] |  |  | PT [2]: without effect on PT; Emax at 0.01 µM [1]: 58%; inhibition at 1 µM ([1]; at 1 μM, read-out: FXa inhibition): > 50%; IC50 ([1]; dose response curves, human FXa): 2.02 nM; inhibition at 1 µM [1, 5]: > 50%; inhibition at 10 µM [1, 6]: > 50%; tumor cell line growth inhibition [3]: inactive in all of them; aPTT [4]: prolonged only aPTT
4 | CS(=O)(=O)N1C[C@H](C(=O)Nc2ccc(Cl)cc2)[C@@H](C(=O)Nc2ccc(-n3ccccc3=O)cc2F)C1 [Compound 8] |  |  | inhibition at 1 µM ([1]; 1 µM, Table S1, read-out: FXa Activity Inhibition >50% at 1µM): < 50%; inhibition at 10 µM ([1]; 10 µM, Table S1, read-out: FXa Activity Inhibition >50% at 10µM): < 50%
5 | CCOc1ccc(NC(=O)CC2SC(=Nc3ccc(C)cc3)NC2=O)cc1 (stereo not shown) [Compound 9] | (−) (FXa Activity Inhibition >50% at 1 μM) | (+) (FXa Activity Inhibition >50% at 10 μM) | 
6 | O=C(C[n+]1ccn(CC(OCc2ccc(Cl)cc2Cl)c2ccc(Cl)cc2Cl)c1)c1ccc(F)cc1.[Cl-] (stereo not shown) [Compound 10] | (−) (FXa Activity Inhibition >50% at 1 μM) | (+) (FXa Activity Inhibition >50% at 10 μM) | 
7 | c1ccc(Cc2[nH]nc(-c3n[nH]c(Cc4ccccc4)c3-c3ccccc3)c2-c2ccccc2)cc1 [Compound 12] | (−) (FXa Activity Inhibition >50% at 1 μM) | (+) (FXa Activity Inhibition >50% at 10 μM) | 
8 | Cc1cc(Cl)ccc1NC(=O)CC1SC(=NC(=O)c2ccccc2Cl)NC1=O (stereo not shown) [Compound 22] | (−) (FXa Activity Inhibition >50% at 1 μM) | (+) (FXa Activity Inhibition >50% at 10 μM) | 
9 | O=C(CC(=O)C1=CNc2ccccc2S1)C(=O)Nc1ccc(Cl)cc1 [Compound 23] | (−) (FXa Activity Inhibition >50% at 1 μM) | (+) (FXa Activity Inhibition >50% at 10 μM) | 
10 | NC(=O)N/N=C(/Cc1nc2ccc(C(=O)c3ccccc3)cc2[nH]c1=O)C(=O)Nc1ccc(Br)cc1 [Compound 24] | (−) (FXa Activity Inhibition >50% at 1 μM) | (+) (FXa Activity Inhibition >50% at 10 μM) | 
11 | O=C(NC[C@H]1CN(c2ccc(N3CCOCC3=O)cc2)C(=O)O1)c1ccc(Cl)s1 [Rivaroxaban, reference compound] |  |  | PT [2]: simultaneously prolonged aPTT and PT in a dose-dependent manner; Emax at 0.01 µM [1]: 81%; inhibition at 1 µM [1, 5]: > 50%; inhibition at 10 µM [1, 6]: > 50%; aPTT [4]: simultaneously prolonged aPTT and PT in a dose-dependent manner
